Here are results for one compound from patent US10968222B2, “2-azabicyclo hexane JAK inhibitor compound” (THERAVANCE BIOPHARMA R&D IP, LLC, priority 2018, dated 2021).

Usually inhibition stands for the share of the control response that was lost under treatment. Low readings indicate little suppression, high ones strong suppression.

One data set concerns the target T1, CDK9 (Homo sapiens, UniProt P50750).
T1 construct: made in house; host or cells: E. coli BL21-derived host (T7 phage) or HEK-293 cells
Kind of data set: Kinome screen, CDK9. In kind it is binding. To be noted: screened at 1 μM. Here is the method:
(§1) Compounds 1 and C-1 were screened against other kinases to evaluate their selectivity profile.
(§2) Kinase-tagged T7 phage strains were grown in parallel in 24-well blocks in an E. coli host derived from the BL21 strain. E. coli were grown to log-phase and infected with T7 phage from a frozen stock (multiplicity of infection=0.4) and incubated with shaking at 32° C. until lysis (90-150 minutes). The lysates were centrifuged (6,000×g) and filtered (0.2 μm) to remove cell debris. The remaining kinases were produced in HEK-293 cells and subsequently tagged with DNA for qPCR detection.
(§3) Streptavidin-coated magnetic beads were treated with biotinylated small molecule ligands for 30 minutes at room temperature to generate affinity resins for kinase assays. The liganded beads were blocked with excess biotin and washed with blocking buffer (SeaBlock (Pierce), 1% BSA, 0.05% Tween 20, 1 mM DTT) to remove unbound ligand and to reduce non-specific phage binding. Binding reactions were assembled by combining kinases, liganded affinity beads, and test compounds in 1× binding buffer (20% SeaBlock, 0.17×PBS, 0.05% Tween 20, 6 mM DTT). Test compounds were prepared as 40× stocks in 100% DMSO and directly diluted into the assay. All reactions were performed in polypropylene 384-well plates in a final volume of 0.04 ml. […] The kinase concentration in the eluates was measured by qPCR. […]

The target of another data set is T2, CSF1R (Homo sapiens, UniProt P07333).
T2 construct: made in house; host or cells: E. coli BL21-derived host (T7 phage) or HEK-293 cells
Put plainly: Kinome screen, CSF1R. It is filed as binding. The conditions noted are these: screened at 1 μM. Here is the method:
as §1, §2, §3

The target of the next data set is T3, PAK4 (Homo sapiens, UniProt O96013).
T3 construct: made in house; host or cells: E. coli BL21-derived host (T7 phage) or HEK-293 cells
Kind of data set: Kinome screen, PAK4. It is filed as binding. To be noted: screened at 1 μM. Here is the method: as §1, §2, §3

Another data set concerns the target T4, ALK (Homo sapiens, UniProt Q9UM73).
T4 construct: made in house; host or cells: E. coli BL21-derived host (T7 phage) or HEK-293 cells
Kind of data set: Kinome screen, ALK. To be noted: screened at 1 μM. In kind it is binding. As to the method: as §1, §2, §3

The target in the next data set is T5, KIT (Homo sapiens, UniProt P10721).
T5 construct: made in house; host or cells: E. coli BL21-derived host (T7 phage) or HEK-293 cells
Put plainly: Kinome screen, KIT. It is filed as binding. To be noted: screened at 1 μM. As to the method: as §1, §2, §3

The subject of data set [1] is BEAS-2B human lung epithelial cells. Put plainly: CellTiter-Glo cell viability/cytotoxicity assay. In kind it is cell-based. To be noted: BEAS-2B cells; 48 h; 15% inhibition threshold. Here is the method:
A CellTiter-Glo luminescent cell viability/cytotoxicity assay was carried out in BEAS-2B human lung epithelial cells (ATCC) under the normal growth condition.
Cells were grown at 37° C. in a 5% CO2 humidified incubator in 50% DMEM/50% F-12 medium (Life Technologies) supplemented with 10% FBS (Hyclone), 100 U/mL penicillin, 100 μg/mL streptomycin (Life Technologies), and 2 mM GlutaMAX (Life Technologies). On day 1 of the assay, cells were seeded at a 500 cells/well density in white 384-well tissue culture plates (Corning) with 25 μL medium, and were allowed to adhere overnight in the incubator. On day 2 of the assay, 5 μL of medium containing dose-responses of test compounds was added, and incubated at 37° C. for 48 h. 30 μL of CellTiter-Glo detection solution (Promega) was subsequently added, mixed on an orbital shaker for 5 min, and incubated for additional 10 min before being read on the EnVision reader. Luminescence signals were recorded and percent DMSO control values were calculated.
For dose-response analysis, percent DMSO control data were plotted vs. compound concentrations to derive dose-response curves by line connecting each data point. The concentration at which each curve crosses the 15% inhibition threshold is defined as CC15.

The next data set has as its target T6, GSK3B (Homo sapiens, UniProt P49841).
T6 construct: made in house; host or cells: E. coli BL21-derived host (T7 phage) or HEK-293 cells
Kind of data set: Kinome screen, GSK3B. It is filed as binding. To be noted: screened at 1 μM. Here is the method:
as §1, §2, §3

In a further data set the target is T7, VEGFR2 (Homo sapiens, UniProt P35968).
T7 construct: made in house; host or cells: E. coli BL21-derived host (T7 phage) or HEK-293 cells
Kind of data set: Kinome screen, VEGFR2. The conditions noted are these: screened at 1 μM. It is filed as binding. As to the method: as §1, §2, §3

For another data set, the target named is T8, PKAC-ALPHA (Homo sapiens, UniProt P17612).
T8 construct: made in house; host or cells: E. coli BL21-derived host (T7 phage) or HEK-293 cells
Put plainly: Kinome screen, PKAC-ALPHA. It is filed as binding. To be noted: screened at 1 μM. Here is the method:
as §1, §2, §3

A further data set has as its target T9, SLK (Homo sapiens, UniProt Q9H2G2).
T9 construct: made in house; host or cells: E. coli BL21-derived host (T7 phage) or HEK-293 cells
Kind of data set: Kinome screen, SLK. It is filed as binding. To be noted: screened at 1 μM. As to the method:
as §1, §2, §3

The next data set deals with T10, AURKA (Homo sapiens, UniProt O14965).
T10 construct: made in house; host or cells: E. coli BL21-derived host (T7 phage) or HEK-293 cells
Put plainly: Kinome screen, AURKA. The conditions noted are these: screened at 1 μM. In kind it is binding. As to the method: as §1, §2, §3

Another data set concerns the target T11, SRC (Homo sapiens, UniProt P12931).
T11 construct: made in house; host or cells: E. coli BL21-derived host (T7 phage) or HEK-293 cells
Kind of data set: Kinome screen, SRC. In kind it is binding. The conditions noted are these: screened at 1 μM. Here is the method:
as §1, §2, §3

The target in the next data set is T12, CDK7 (Homo sapiens, UniProt P50613).
T12 construct: made in house; host or cells: E. coli BL21-derived host (T7 phage) or HEK-293 cells
Kind of data set: Kinome screen, CDK7. In kind it is binding. The conditions noted are these: screened at 1 μM. Here is the method:
as §1, §2, §3

Another data set deals with T13, EPHB6 (Homo sapiens, UniProt O15197).
T13 construct: made in house; host or cells: E. coli BL21-derived host (T7 phage) or HEK-293 cells
Put plainly: Kinome screen, EPHB6. It is filed as binding. The conditions noted are these: screened at 1 μM. As to the method:
as §1, §2, §3

The target in another data set is T14, SYK (Homo sapiens, UniProt P43405).
T14 construct: made in house; host or cells: E. coli BL21-derived host (T7 phage) or HEK-293 cells
Put plainly: Kinome screen, SYK. To be noted: screened at 1 μM. It is filed as binding. As to the method:
as §1, §2, §3

The next data set concerns the target T15, PLK4 (Homo sapiens, UniProt O00444).
T15 construct: made in house; host or cells: E. coli BL21-derived host (T7 phage) or HEK-293 cells
Kind of data set: Kinome screen, PLK4. It is filed as binding. The conditions noted are these: screened at 1 μM. As to the method: as §1, §2, §3

For a further data set, the target named is T16, CSNK1D (Homo sapiens, UniProt P48730).
T16 construct: made in house; host or cells: E. coli BL21-derived host (T7 phage) or HEK-293 cells
Put plainly: Kinome screen, CSNK1D. The conditions noted are these: screened at 1 μM. It is filed as binding. Here is the method: as §1, §2, §3

Another data set has as its target T17, CDK2 (Homo sapiens, UniProt P24941).
T17 construct: made in house; host or cells: E. coli BL21-derived host (T7 phage) or HEK-293 cells
Kind of data set: Kinome screen, CDK2. In kind it is binding. The conditions noted are these: screened at 1 μM. As to the method: as §1, §2, §3

T1 sequence (P50750 whole entry): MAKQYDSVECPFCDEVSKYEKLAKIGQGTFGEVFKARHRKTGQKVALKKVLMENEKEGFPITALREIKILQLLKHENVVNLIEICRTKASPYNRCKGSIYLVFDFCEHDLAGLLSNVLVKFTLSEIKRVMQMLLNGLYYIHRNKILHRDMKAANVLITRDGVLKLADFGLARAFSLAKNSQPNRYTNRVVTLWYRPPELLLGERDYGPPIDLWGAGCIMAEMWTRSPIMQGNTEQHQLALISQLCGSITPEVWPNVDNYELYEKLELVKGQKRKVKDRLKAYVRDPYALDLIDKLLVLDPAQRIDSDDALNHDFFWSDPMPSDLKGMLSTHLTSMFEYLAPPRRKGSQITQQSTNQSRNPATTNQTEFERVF
T12 sequence (P50613 whole entry): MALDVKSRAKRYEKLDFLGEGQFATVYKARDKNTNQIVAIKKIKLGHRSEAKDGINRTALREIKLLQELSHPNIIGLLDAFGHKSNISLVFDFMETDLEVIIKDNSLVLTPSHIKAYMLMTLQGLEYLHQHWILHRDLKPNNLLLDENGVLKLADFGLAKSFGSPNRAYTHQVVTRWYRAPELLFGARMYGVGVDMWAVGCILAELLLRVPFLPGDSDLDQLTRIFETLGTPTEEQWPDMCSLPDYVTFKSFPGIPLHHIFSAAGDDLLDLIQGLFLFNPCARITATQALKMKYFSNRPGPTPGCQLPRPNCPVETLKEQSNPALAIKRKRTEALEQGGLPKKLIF
T13 sequence (O15197 32-1021): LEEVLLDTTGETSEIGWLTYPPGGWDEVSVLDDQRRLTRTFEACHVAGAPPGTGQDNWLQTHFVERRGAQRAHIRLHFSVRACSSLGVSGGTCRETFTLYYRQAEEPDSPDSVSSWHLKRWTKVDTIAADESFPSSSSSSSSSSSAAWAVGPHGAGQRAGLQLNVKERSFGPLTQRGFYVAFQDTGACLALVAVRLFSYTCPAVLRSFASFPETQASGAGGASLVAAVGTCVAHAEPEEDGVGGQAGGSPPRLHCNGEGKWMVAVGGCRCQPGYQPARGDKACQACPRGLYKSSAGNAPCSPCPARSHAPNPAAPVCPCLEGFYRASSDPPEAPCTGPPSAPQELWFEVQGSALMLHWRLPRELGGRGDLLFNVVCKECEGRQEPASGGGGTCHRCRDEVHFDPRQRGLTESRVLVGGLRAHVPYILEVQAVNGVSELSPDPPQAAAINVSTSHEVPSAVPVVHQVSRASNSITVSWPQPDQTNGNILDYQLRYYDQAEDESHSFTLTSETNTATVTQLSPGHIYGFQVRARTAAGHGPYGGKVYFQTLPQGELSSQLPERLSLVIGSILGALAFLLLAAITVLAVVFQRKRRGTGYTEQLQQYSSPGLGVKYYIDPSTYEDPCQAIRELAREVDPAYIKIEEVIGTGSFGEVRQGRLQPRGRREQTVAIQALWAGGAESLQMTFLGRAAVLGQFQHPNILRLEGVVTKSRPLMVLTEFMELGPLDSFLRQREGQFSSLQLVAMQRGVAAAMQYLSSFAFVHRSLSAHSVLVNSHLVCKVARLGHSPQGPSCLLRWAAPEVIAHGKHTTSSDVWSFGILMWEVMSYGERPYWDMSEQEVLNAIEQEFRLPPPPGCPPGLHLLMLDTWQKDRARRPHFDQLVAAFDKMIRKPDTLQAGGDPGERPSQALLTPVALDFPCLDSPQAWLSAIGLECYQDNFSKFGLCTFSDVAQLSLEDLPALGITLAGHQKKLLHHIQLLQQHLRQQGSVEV
T4 sequence (Q9UM73 19-1620): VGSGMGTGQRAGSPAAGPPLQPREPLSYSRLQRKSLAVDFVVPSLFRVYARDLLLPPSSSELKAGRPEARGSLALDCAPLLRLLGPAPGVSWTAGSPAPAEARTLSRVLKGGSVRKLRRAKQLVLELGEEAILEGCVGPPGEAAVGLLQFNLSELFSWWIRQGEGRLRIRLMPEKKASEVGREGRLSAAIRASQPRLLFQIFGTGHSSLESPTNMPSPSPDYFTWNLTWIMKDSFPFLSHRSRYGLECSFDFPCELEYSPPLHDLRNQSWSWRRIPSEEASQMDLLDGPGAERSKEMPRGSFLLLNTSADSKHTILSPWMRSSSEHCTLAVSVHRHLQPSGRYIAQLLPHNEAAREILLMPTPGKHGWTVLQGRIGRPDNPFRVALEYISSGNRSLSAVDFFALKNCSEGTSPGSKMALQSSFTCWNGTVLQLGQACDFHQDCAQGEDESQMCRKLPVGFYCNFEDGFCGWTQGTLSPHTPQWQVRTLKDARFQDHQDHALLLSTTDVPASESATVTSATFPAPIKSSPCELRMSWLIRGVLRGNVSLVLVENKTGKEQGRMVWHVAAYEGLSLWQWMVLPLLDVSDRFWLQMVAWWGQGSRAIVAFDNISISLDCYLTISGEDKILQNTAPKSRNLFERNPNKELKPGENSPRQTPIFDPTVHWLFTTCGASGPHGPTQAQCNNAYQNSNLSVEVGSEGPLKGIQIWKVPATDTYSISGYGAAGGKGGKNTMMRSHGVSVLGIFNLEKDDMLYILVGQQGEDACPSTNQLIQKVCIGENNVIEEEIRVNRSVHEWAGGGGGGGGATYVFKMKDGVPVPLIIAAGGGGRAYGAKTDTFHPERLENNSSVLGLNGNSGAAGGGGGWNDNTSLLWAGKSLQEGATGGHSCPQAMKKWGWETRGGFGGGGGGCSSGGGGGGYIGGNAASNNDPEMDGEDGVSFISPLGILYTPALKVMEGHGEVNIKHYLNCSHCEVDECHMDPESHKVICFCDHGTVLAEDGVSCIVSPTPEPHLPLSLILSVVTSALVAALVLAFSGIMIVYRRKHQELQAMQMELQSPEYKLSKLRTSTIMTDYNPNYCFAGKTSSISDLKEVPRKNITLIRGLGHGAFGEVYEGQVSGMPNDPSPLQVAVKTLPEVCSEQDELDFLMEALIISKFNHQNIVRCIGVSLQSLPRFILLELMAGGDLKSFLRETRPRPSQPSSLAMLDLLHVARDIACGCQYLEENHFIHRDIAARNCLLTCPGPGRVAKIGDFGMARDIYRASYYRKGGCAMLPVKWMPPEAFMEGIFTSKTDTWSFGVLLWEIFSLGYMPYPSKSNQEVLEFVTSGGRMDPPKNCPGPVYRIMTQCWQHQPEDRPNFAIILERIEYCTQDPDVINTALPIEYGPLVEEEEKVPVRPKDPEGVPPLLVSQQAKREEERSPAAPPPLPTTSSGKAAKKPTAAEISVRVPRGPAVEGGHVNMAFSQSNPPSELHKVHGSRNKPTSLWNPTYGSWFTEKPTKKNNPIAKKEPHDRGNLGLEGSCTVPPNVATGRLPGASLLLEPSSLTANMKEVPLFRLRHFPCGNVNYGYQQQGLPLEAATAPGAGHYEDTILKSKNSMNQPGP
T5 sequence (P10721 26-976): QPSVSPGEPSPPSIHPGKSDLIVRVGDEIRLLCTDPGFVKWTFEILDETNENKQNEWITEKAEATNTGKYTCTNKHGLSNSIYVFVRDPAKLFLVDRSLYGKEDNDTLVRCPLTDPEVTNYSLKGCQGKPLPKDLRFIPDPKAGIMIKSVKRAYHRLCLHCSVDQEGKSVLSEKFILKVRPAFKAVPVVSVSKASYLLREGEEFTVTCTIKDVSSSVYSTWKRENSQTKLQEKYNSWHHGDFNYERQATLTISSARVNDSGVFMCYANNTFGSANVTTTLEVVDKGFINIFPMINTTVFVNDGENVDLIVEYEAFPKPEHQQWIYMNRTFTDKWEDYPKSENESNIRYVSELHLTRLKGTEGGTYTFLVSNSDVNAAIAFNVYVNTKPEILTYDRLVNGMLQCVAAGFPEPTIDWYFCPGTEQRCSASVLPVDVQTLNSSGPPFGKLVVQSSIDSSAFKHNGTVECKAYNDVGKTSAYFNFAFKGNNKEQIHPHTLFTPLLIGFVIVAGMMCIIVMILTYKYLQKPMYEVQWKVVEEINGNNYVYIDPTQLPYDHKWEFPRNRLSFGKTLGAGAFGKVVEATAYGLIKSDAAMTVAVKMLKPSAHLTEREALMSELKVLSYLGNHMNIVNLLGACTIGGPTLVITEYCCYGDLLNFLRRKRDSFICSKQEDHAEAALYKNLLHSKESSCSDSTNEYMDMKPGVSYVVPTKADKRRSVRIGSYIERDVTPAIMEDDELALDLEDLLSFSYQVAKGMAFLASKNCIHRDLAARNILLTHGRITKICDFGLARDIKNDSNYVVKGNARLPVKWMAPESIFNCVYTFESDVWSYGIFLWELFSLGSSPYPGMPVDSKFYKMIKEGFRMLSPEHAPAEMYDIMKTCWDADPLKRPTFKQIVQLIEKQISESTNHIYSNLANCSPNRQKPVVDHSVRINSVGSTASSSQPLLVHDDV
T11 sequence (P12931 whole entry): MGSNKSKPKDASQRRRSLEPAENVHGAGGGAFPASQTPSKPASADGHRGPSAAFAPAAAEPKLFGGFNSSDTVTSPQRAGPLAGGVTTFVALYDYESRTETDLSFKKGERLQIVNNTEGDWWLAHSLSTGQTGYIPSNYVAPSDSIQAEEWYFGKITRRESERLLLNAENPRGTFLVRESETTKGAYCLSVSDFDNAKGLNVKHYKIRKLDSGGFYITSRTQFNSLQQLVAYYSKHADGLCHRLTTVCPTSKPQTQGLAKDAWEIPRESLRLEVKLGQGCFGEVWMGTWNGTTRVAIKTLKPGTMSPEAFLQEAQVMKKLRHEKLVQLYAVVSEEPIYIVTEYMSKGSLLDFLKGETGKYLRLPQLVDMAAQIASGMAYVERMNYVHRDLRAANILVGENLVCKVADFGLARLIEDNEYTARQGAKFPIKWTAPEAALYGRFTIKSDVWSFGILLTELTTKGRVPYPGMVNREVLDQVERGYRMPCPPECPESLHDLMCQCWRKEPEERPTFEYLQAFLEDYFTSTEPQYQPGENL

On to `CCc1cc(O)c(F)cc1-c1ccc2c(-c3nc4c([nH]3)CCN(C(=O)[C@]35C[C@H]3CCN5)C4)n[nH]c2c1` [Compound C-1, ((1S,5R)-2-azabicyclo[3.1.0]hexan-1-yl)(2-(6-(2-ethyl-5-fluoro-4-hydroxyphenyl)-1H-indazol-3-yl)-1,4,6,7-tetrahydro-5H-imidazo[4,5-c]pyridin-5-yl)methanone, reference compound], for which the inhibition at 1 µM worked out at 89% against CDK9; 100% on CSF1R; 89% against PAK4; 87% against ALK; 98.5% against KIT; 52% at GSK3B. For the same compound, the inhibition at 1 µM worked out at 59% against VEGFR2; 55% at PKAC-ALPHA; 99.9% against SLK; 54% against AURKA; 98.9% against SRC; 98.8% at CDK7. Further, the inhibition at 1 µM on EPHB6 was determined as 96.5%; on SYK, 82%; against PLK4 it was 40%; at CSNK1D, 66%; against CDK2 it was 50%. In data set [1], this compound returned a CC15 of 1.58 µM. For the same compound, in data set [1], the pCC15 was 5.8.
